Columns and labels:
[1] = system: mCherry fluorescent reporter; assay: Inducible anti-sense repressor switch: mCherry reporter repression and recovery in 293T cells stably expressing ZF-VP64-ERT2 synTF and the reporter construct; assay type: cell-based, human
Experimental: (§1) To evaluate the kinetics of this repressor switch, 293T cells where generated to stably express both the inducible anti-sense repressor and fluorescent reporter. In order to determine whether the repressor switch is able to transiently silence GOIs, the inventors treated reporter cells with. 1 uM 4-OHT and measured mCherry reporter fluorescence at 1 day, 2 days, and 3 days. In order to determine whether the repressor switch transiently represses GOIs, the inventors removed 4-OHT and measured fluorescence expression after 2 days, 4 days, 6 days, and 8 days (FIG. 5A-5B).
The expression of mCherry was measured at days 0, d1, d2, d3, d4, d6, d7, d9 and d11.
as §1, with “To assess transcriptional repression of the GOI, inducible antisense repressor construct comprising (i) a first transcriptional unit comprising a constitutively active promoter operatively linked to a mCherry fluorescent reporter GOI was used, and a (ii) a second transcriptional unit comprising an inverted DNA binding motif (DBM) comprising a zinc finger binding array operatively linked to a minimal promoter (FIG. 4A). To” for “To”, “with 0.1” for “with. 1”
To assess the inducible transcriptional repressor system, the inventors initially used two vectors. One vector comprises a synthetic inducible repressor construct as defined herein, which compromises a gene of interest (GOI) operatively linked to a constitutive promoter, and downstream, a second transcription unit comprising, in brief, a second promoter, and a binding site for the synTF (e.g., DBM or the DNA binding domain). The second vector encoding the inducible synTF (e.g., small molecule induced synTF) comprising a transcriptional activation domain, DNA-binding domain (DBD) and a nuclear localization domain (or cytosolic domain). First, to construct the nucleic acid encoding the small-molecule inducer synTF, one of our artificial zinc finger proteins was attached (see U.S. Pat. No. 10,138,493 B2 and Patent Application No. US 2020/0377564 A1, incorporated herein by reference) to both a VP64 transcriptional domain and ERT2 domain (FIG. 2A). To assess the inducer-dependent, synTF mediated transcriptional repression of the GOI, an engineered construct comprising a constitutively expressed mCherry fluorescent reporter, operatively connected to a constitutive promoter was created, which had, downstream a minimal promoter and an inverted zinc finger binding array (ZF-BD) (also referred to as a DNA binding motif (DBM) (FIG. 4A).
To evaluate the kinetics of this inducible antisense repressor switch, 293T cells were transduced with the vector encoding the synTF and the inducible transcriptional repressor construct to generate a reporter cell line that stably expresses both the inducible synTF and fluorescent reporter. To determine whether the repressor switch was able to transiently silence the GOI mRNA, the cells were treated with three concentrations of 4-OHT and mCherry reporter was measured fluorescence at 1 day, 2 days, and 3 days (FIG. 5A-5B). Next, to determine whether the inducible synTF repressor switch could transiently represses the expression of the GOI, 4-OHT was removed and measured fluorescence expression after 2 days, 4 days, 6 days, and 8 days (FIG. 5B).

mCherry [2] = assay: Downstream inducible repression with synTF-RD (zinc finger, KRAB, ERT2) and its repressor construct, % mCherry (FIG. 6B); assay type: cell-based; conditions: 4-OHT at 0.1, 0.2, 0.5 and 1 μM for d0-d3, 8 days after removal
Source text: FIG. 6A-6B show an alternative embodiment of a synTF and construct system for downstream inducible-repression.

mCherry GOI = assay: Inducible-repressor circuit with spacer and second promoter, % mCherry and FACS (FIG. 8, FIG. 9); assay type: cell-based
Source text: FIG. 7 is a schematic of an exemplary inducible-repressor circuit (top panel), and a second exemplary inducible-repressor circuit (bottom panel), where the second inducible-repressor circuit is modified to comprise, in the second transcription unit, a spacer and a second promoter, and the DBD, each if which are in the antisense direction to the first transcription unit comprising the first promoter and GOI.

mCherry [3] = assay: Inducible-repressor circuit with RZ and synTF-MNAS, % mCherry (FIG. 11); assay type: cell-based; conditions: 4-OHT d0-d3 at 0.1, 0.2, 0.5 and 1 μM, duplicates
Source text: FIG. 10 is a schematic of an exemplary synTF comprising VP64, and an exemplary inducible anti-sense repressor construct comprising, in the second transcription unit, a ribosome entry site (RZ), and a nucleic acid sequence that is the antisense to a portion of the nucleic acid encoding the GOI, which are both 5′ to the second promoter and the DBD. In some embodiments, the antisense to the portion of the GOI, herein referred to as “synTF-mediated nucleic acid sequence” or “synTF-MNAS” can be replaced by any RNAi molecule known to persons of ordinary skill in the art.

CC/C(=C(\c1ccc(O)cc1)c1ccc(OCCN(C)C)cc1)c1ccccc1 [4-OHT, 4-hydroxytamoxifen]
reporter fluorescence expression after 3 days of 4-OHT ([1]; 0.1 uM 4-OHT, 293T reporter cells, after 3 days): strongly repressed
mCherry expression in the presence of 4-OHT, of normal levels ([1]; 4-OHT at 0.1 μM, 0.2 μM and 0.5 μM for d0-d3, 293 cells with synTF and construct of FIG. 2A-2B): about 20%
mCherry levels 8 days after the removal of 4-OHT ([1]; 4-OHT at 0.1 μM, 8 days after removal): back to normal levels
reporter fluorescence expression after 4-OHT removal ([1]; 8 days post 4-OHT removal): restored
mCherry expression restored, of baseline levels ([1]; 8 days post 4-OHT removal, 0.1 M 4-OHT treatment (so in the source)): 100%
repression of mCherry expression ([1]; all three 4-OHT concentrations, after 3 days, 293T reporter cells): approx. 80%
mCherry expression after the removal of 4-OHT ([1]; d4-d11, after 3 days of 4-OHT): significantly increased
repression of mCherry compared with the synTF and construct of FIG. 5B (mCherry [2]): milder repression
repression of mCherry compared with the construct in the top panel of FIG. 7 (mCherry GOI; 4-OHT d0-d3 at 0.1 μM, 0.2 M (so in the source), 0.5 μM and 1 μM, duplicates, spacer and second promoter circuit): greater repression
mCherry expression, FACS flow plot (mCherry GOI; 2 days after addition of 1 uM 4-OHT, decreased from 87.9% before): 69.8%
repression of mCherry compared with the construct in the top panel of FIG. 7 (mCherry [3]): greater repression
